Assay results from patent publication US20090062361A1, “THERAPEUTIC HYDANTOINS” (ALLERGAN, INC., priority 2007, published 2009).

How the values were obtained:
EP2 [1] = molecular target: T1, EP2 (Homo sapiens, UniProt P43116); test: EP2 flipr functional assay; assay type: cell-based
Excerpt: (§1) United States Patent Application Publication No. 20070129552, incorporated by reference herein, describes the methods used to obtain the in vitro data in the table below.

EP2 [2] = molecular target: T1, EP2; test: EP2 binding (Ki)
Excerpt: as §1

EP4 [3] = molecular target: T2, EP4 (Homo sapiens, UniProt P35408); test: EP4 binding (KI)
Excerpt: as §1

hEP3A = molecular target: T3, hEP3A (Homo sapiens, UniProt P43115); test: Other receptors functional assay, hEP3A; assay type: cell-based
T3 sequence (P43115 1-390): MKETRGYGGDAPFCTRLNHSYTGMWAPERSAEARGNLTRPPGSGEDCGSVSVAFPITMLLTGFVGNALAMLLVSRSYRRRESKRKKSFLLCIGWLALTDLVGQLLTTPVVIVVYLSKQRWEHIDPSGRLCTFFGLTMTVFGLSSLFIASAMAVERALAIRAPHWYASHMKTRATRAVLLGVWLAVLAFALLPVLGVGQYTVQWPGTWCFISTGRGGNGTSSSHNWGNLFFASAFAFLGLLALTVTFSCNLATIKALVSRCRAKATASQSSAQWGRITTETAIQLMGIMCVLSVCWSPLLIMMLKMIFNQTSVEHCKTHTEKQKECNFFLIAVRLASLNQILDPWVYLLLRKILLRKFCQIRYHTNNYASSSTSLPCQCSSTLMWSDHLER
Excerpt: as §1

hDP = molecular target: T4, hDP (Homo sapiens, UniProt Q13258); test: Other receptors functional assay, hDP; assay type: cell-based
T4 sequence (Q13258 1-359): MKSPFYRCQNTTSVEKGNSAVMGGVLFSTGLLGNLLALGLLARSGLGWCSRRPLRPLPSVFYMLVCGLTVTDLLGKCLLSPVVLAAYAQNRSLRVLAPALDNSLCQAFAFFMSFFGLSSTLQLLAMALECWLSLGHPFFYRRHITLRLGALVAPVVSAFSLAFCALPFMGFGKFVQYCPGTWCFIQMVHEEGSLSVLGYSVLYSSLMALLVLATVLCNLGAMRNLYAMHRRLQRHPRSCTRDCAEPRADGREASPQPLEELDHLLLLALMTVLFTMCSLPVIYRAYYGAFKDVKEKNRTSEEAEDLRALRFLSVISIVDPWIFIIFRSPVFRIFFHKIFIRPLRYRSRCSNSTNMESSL
Excerpt: as §1

EP4 [4] = molecular target: T2, EP4; test: EP4 flipr functional assay; assay type: cell-based
Excerpt: as §1

normotensive dogs = test: Intraocular pressure and ocular surface hyperemia in normotensive dogs; assay type: in vivo; conditions: 0.003%, once daily for 5 days
Experimental: (§2) U.S. Pat. No. 7,091,231 describes the methods used to carry out the tests reported below.
(§3) Isopropyl 5-(3-(3-(4-(1-hydroxyhexyl)phenyl)-2,5-dioxoimidazolidin-4-yl)propyl)thiophene-2-carboxylate (31) was tested in normotensive dogs at 0.003%, dosing once daily for 5 days. The maximum intraocular pressure (IOP) decrease from baseline was 7.7 mmHg (45%) at 102 h; the maximum ocular surface hyperemia (OSH) score was 2.5 at 26 h. This compound was also tested in laser-induced hypertensive monkeys, using one single day dose. At 0.003%, the maximum IOP decrease from baseline was 23 mmHg (53%) at 24 h.
(§4) Isopropyl 5-(3-(3-(4-hexanoylphenyl)-2,5-dioxoimidazolidin-4-yl)propyl)thiophene-2-carboxylate (32) was tested in normotensive dogs at 0.003%, dosing once daily for 5 days. The maximum intraocular pressure (IOP) decrease from baseline was 8.9 mmHg (48%) at 54 h; the maximum ocular surface hyperemia (OSH) score was 2.3 at 54 h. This compound was also tested in laser-induced hypertensive monkeys, using one single day dose. At 0.003%, the maximum IOP decrease from baseline was 19 mmHg (49%) at 24 h.

[5] = test system: laser-induced hypertensive monkeys; test: Intraocular pressure in laser-induced hypertensive monkeys; assay type: in vivo; conditions: 0.003%, one single day dose, at 24 h
Experimental: as §2, §3, §4

T1 sequence (P43116 whole entry): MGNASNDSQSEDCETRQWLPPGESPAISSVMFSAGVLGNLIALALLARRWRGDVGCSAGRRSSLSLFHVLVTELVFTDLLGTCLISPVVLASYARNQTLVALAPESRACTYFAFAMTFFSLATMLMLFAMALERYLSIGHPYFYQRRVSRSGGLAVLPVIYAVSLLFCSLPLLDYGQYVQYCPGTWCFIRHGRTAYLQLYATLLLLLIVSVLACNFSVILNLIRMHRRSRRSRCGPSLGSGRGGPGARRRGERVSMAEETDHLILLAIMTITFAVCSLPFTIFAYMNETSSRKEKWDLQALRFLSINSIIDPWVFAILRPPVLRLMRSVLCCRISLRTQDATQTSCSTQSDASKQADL
T2 sequence (P35408 whole entry): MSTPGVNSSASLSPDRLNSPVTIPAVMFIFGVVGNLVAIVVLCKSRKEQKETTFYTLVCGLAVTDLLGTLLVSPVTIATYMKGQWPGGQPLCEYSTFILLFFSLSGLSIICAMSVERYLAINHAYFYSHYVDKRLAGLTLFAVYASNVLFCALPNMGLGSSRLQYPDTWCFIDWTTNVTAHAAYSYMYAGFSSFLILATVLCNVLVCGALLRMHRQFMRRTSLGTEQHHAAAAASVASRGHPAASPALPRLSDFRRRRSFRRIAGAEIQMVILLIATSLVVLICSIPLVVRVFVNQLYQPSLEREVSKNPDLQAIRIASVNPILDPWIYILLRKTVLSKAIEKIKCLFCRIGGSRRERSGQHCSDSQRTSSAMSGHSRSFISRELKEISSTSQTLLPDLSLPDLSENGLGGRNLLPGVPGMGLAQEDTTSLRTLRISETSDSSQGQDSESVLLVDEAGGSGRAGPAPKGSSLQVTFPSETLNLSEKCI

EC50 (EP2 [1]) [nM] | Ki (EP2 [2]) [nM] | Ki (EP4 [3]) [nM] | EC50 (hEP3A) [nM] | EC50 (hDP) [nM] | EC50 (EP4 [4]) [nM] | maximum ocular surface hyperemia (OSH) score (normotensive dogs; at 26 h) | maximum ocular surface hyperemia (OSH) score (normotensive dogs; at 54 h) | SMILES | maximum intraocular pressure (IOP) decrease from baseline (normotensive dogs; at 102 h) [mmHg] | maximum intraocular pressure (IOP) decrease from baseline (percent) (normotensive dogs; at 102 h) [%] | maximum IOP decrease from baseline [5] [mmHg] | maximum IOP decrease from baseline (percent) [5] [%] | maximum intraocular pressure (IOP) decrease from baseline (normotensive dogs; at 54 h) [mmHg] | maximum intraocular pressure (IOP) decrease from baseline (percent) (normotensive dogs; at 54 h) [%]
3.5 | 5 | > 10000 | 10 | 17400 |  |  |  | CCCCC[C@H](O)c1ccc(N2C(=O)NC(=O)C2CCCc2ccc(C(=O)O)s2)cc1 (stereo in doubt) [Example 2, 5-(3-(3-(4-(1-hydroxyhexyl)phenyl)-2,5-dioxoimidazolidin-4-yl)propyl)thiophene-2-carboxylic acid] |  |  |  |  |  | 
17 | 4.5 | 3240 | 131 | 8810 | 17500 |  |  | CCCCCC(=O)c1ccc(N2C(=O)NC(=O)C2CCCc2ccc(C(=O)O)s2)cc1 (stereo not shown) [Example 1, 5-(3-(3-(4-hexanoylphenyl)-2,5-dioxoimidazolidin-4-yl)propyl)thiophene-2-carboxylic acid] |  |  |  |  |  | 
4 | 2 | 5070 | 5 | > 10000 |  |  |  | CCCCC[C@H](O)c1ccc(N2C(=O)NC(=O)[C@@H]2CCCc2ccc(C(=O)O)s2)cc1 [Example 7, 5-(3-((S)-3-(4-((S)-1-hydroxyhexyl)phenyl)-2,5-dioxoimidazolidin-4-yl)propyl)thiophene-2-carboxylic acid] |  |  |  |  |  | 
23 | 4 | 7190 | 29 | > 10000 |  |  |  | CCCCC[C@H](O)c1ccc(N2C(=O)NC(=O)[C@H]2CCCc2ccc(C(=O)O)s2)cc1 [Example 8, 5-(3-((R)-3-(4-((S)-1-hydroxyhexyl)phenyl)-2,5-dioxoimidazolidin-4-yl)propyl)thiophene-2-carboxylic acid] |  |  |  |  |  | 
1 | 1 | 7210 | 15 | 19300 | 2000 |  |  | CCCCC[C@@H](O)c1ccc(N2C(=O)NC(=O)[C@@H]2CCCc2ccc(C(=O)O)s2)cc1 [Example 10, 5-(3-((S)-3-(4-((R)-1-hydroxyhexyl)phenyl)-2,5-dioxoimidazolidin-4-yl)propyl)thiophene-2-carboxylic acid] |  |  |  |  |  | 
 |  |  |  |  |  | 2.5 |  | CCCCCC(O)c1ccc(N2C(=O)NC(=O)C2CCCc2ccc(C(=O)OC(C)C)s2)cc1 (stereo not shown) [Example 31, Isopropyl 5-(3-(3-(4-(1-hydroxyhexyl)phenyl)-2,5-dioxoimidazolidin-4-yl)propyl)thiophene-2-carboxylate] | 7.7 | 45 | 23 | 53 |  | 
 |  |  |  |  |  |  | 2.3 | CCCCCC(=O)c1ccc(N2C(=O)NC(=O)C2CCCc2ccc(C(=O)OC(C)C)s2)cc1 (stereo not shown) [Example 32, Isopropyl 5-(3-(3-(4-hexanoylphenyl)-2,5-dioxoimidazolidin-4-yl)propyl)thiophene-2-carboxylate] |  |  | 19 | 49 | 8.9 | 48
